Patent US20010042520A1, “Method for producing model animals for itching induced by disruption of cutaneous barrier function” (priority 2000, published 2001)

Legend:
Format in all cases: in vivo, male ICR mice
[1] = tested on: scratching action induced by the disruption of the cutaneous barrier function of mice; test: Scratching action of mice with disrupted cutaneous barrier function (acetone/diethylether mixture and distilled water, twice daily for 5 days); settings: for number of the scratching action based on that of the control group: 120 minutes recording, control average = 100%, average ± standard error, 8 mice; for number of the scratching action bouts per 120 minutes: 10% aqueous solution, control group 126.5±20.8, significant
Excerpt: (§1) A rostral part (4 cm^2, i.e. 2 cm×2 cm) of the back skin in each of 10 male ICR mice was shaved. Four days after the shaving, the following test was started: The skin was covered with a 2 cm×2 cm absorbent cotton impregnated with a mixture of acetone and diethylether (1:1) for 15 seconds. The skin was wiped to remove superfluous solvent, then covered with an absorbent cotton impregnated with distilled water for 30 seconds, and wiped in the same manner as that described above. This treatment for disrupting the cutaneous barrier function of the skin was conducted twice in daily at intervals of at least 8 hours for 5 days. In a control group, only the shaving was conducted.
On the next day after the completion of the 5 days treatment for disrupting the skin barrier function, each mouse was placed in each section of an acrylic acid resin cage (26×18×33 cm) divided into four sections (each section: 13×9×33 cm). After the mice was acclimatized to the cage in unmanned environment for 60 minutes, the action of each mouse was recorded for 120 minutes with a 8 mm video camera placed above the cage in such a manner that the 4 sections are in one scene. The scratching action was observed by playing back the video tape. The number of the scratching action by which the tip of a toe of a hind limb of the mouse touched the shaved part of the skin in 120 minutes was counted by the visual observation. One scratching action was a series of action beginning when the mouse raised its hind limb for starting the scratching and ending when the animal lowers its hind limb.
The effect of Terfenadine, which is a histamine H1 receptor antagonist, and that of Naloxone, which is an opioid antagonist, for relieving the itching were determined with the same test materials as those in Example 1. The barrier function-disrupting treatment was conducted in the same manner as that of Example 1. On the next day after the completion of the 5 days barrier function disrupting treatment, the scratching action of mice was recorded for 120 minutes in the same manner as that of Example 1. The observation of the behavior of the mice and the counting of the number of times of the scratching action were conducted in the same manner as that of Example 1. 10 mg/kg of Terfenadine which is the histamine H1 receptor antagonist, was perorally administered at 30 minutes before the starting to record the scratching action, or 1 mg/kg of Naloxone, which is an opioid receptor antagonist, was subcutaneously injected at 15 minutes before the starting to record the scratching action. […]
(§2) The effect of glycerol (humectant) on the skin manifestations and itching induced by the barrier disruption treatment of the present invention was determined by using the test animals similar to those used in Example 1. […] The skin manifestations were examined by the visual observation and the determination of hydration of the stratum corneum based on the relative electrostatic capacitance determined with Corneometer CM 825 (Courage+Khazaka Electronics, Cologne, Germany). Hydration of the stratum corneum was determined before starting the first barrier disrupting treatment every day and on the next day after the completion of the five days barrier disruption treatment. As for the scratching action, the scratching action of each mouse was filmed and recorded for 120 minutes in the same manner as that in Example 1 on next day after the completion of the five days barrier disruption treatment. […]

[2] = tested on: hydration of the stratum corneum; test: Hydration of the stratum corneum by relative electrostatic capacitance (Corneometer CM 825) in barrier-disrupted mice
Excerpt: as §1
as §2, with “treatment.” for “treatment. As for the scratching action, the scratching action of each mouse was filmed and recorded for 120 minutes in the same manner as that in Example 1 on next day after the completion of the five days barrier disruption treatment.”

[3] = tested on: formation of scales and wrinkles induced by the cutaneous barrier disruption; test: Visual observation of skin manifestations (scales and wrinkles) in barrier-disrupted mice
Excerpt: as §1
as §2, with “treatment.” for “treatment. As for the scratching action, the scratching action of each mouse was filmed and recorded for 120 minutes in the same manner as that in Example 1 on next day after the completion of the five days barrier disruption treatment.”

[4] = 10 mg/kg perorally 30 minutes before recording

C=CCN1CC[C@]23c4c5ccc(O)c4O[C@H]2C(=O)CC[C@@]3(O)[C@H]1C5 [Naloxone]
number of the scratching action based on that of the control group ([1]; 1 mg/kg subcutaneously 15 minutes before recording, significant vs control (5%)): 42.5±13.1%

CC(C)(C)c1ccc(C(O)CCCN2CCC(C(O)(c3ccccc3)c3ccccc3)CC2)cc1 (stereo not drawn) [Terfenadine]
suppressing effect on the scratching action [1, 4]: no suppressing effect was recognized
number of the scratching action based on that of the control group [1, 4]: 124.2±49.3%

OCC(O)CO [glycerol]
number of the scratching action bouts per 120 minutes ([1]; 50 μl applied for 5 days, one hour after each barrier disruption treatment): 42.5±10.0 per 120 minutes
number of the scratching action bouts per 120 minutes ([1]; 50 μl applied for one day (twice on the fifth day)): 76.5±14.6 per 120 minutes
hydration of the stratum corneum (relative electrostatic capacitance) ([2]; 10% aqueous solution applied for 5 days, next day after the 5 days barrier disrupting treatment, 40.0±1.2 before start, control 15.5±2.1): 44.7±3.0
hydration of the stratum corneum (relative electrostatic capacitance) ([2]; 10% aqueous solution applied for one day, recovered from 20.5±1.3 after 4 days of treatment, 43.5±1.3 before start): 41.3±2.6
formation of scales and wrinkles induced by the cutaneous barrier disruption ([3]; 10% aqueous solution applied for 5 days): completely inhibited
scales and wrinkle formation ([3]; 10% aqueous solution applied for one day): slight scales and wrinkle formation was observed
